# Laboratory results: publication PMC7470115, “Design, synthesis and biological evaluation of novel tetrahydrothieno [2,3-c]pyridine substitued benzoyl thiourea derivatives as PAK1 inhibitors in triple negative breast cancer” (Journal of Enzyme Inhibition and Medicinal Chemistry, 2020)
# Target: PAK1 (Homo sapiens, UniProt Q13153)
# Assay: PAK1 enzymatic assay (Kinase-Glo Plus / ADP-Glo luminescence)
# Format: biochemical
# Details: tested in triplicate, mean ± SD; 50 µM ATP; read-out: Kinase inhibitory activity (IC50, μM) PAK1
# Procedure: These assays were carried out as described previously. All of the enzymatic reactions were conducted at 30 °C for 40 min. The 50 µl reaction mixture contains 40 mM Tris, pH 7.4, 10 mM MgCl2, 0.1 mg/ml BSA, 1 mM DTT, 50 µM ATP, 0.2 μg/ml PAK1 and 100 uM lipid substrate. The compounds were diluted in 10% DMSO and 5 µl of the dilution was added to a 50 µl reaction so that the final concentration of DMSO is 1% in all of the reactions. The assay was performed using the Kinase-Glo Plus luminescence kinase assay kit and ADP-Glo Plus luminescence kinase assay kit. It measures kinase activity by quantitating the amount of ATP remaining in solution following a kinase reaction. The luminescent signal from the assay is correlated with the amount of ATP present and is inversely correlated with the amount of kinase activity. The IC50 values were calculated using nonlinear regression with normalised dose − response fit using Prism GraphPad software.
# Chain of PAK1 (Q13153 whole entry): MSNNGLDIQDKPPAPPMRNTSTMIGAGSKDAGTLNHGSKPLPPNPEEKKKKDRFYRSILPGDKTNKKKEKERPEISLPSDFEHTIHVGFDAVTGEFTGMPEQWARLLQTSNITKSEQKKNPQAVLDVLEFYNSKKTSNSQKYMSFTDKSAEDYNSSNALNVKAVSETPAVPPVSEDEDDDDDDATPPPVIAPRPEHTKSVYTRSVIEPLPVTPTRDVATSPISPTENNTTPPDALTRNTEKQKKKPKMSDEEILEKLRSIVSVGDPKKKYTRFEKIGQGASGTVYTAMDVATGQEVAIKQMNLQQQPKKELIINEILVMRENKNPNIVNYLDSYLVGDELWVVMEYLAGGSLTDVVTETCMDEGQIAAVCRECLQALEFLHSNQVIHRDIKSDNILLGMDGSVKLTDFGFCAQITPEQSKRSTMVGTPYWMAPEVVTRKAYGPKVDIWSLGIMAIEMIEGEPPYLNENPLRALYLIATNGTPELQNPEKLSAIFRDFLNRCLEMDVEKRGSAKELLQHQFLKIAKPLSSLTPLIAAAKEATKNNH
row,Structure (SMILES),IC50 [µM]
1,"Cc1ccc(C(=O)NC(=S)Nc2sc3c(c2C(N)=O)CCN(C(=O)OC(C)(C)C)C3)cc1 [Compound 5b, Tert-butyl-3-carbamoyl-2–(3-(4-methylbenzoyl)thioureido)-4,7-dihydrothieno[2,3-c]pyridine-6(5H)-carboxylate]",7.28 ± 0.78
2,"Cc1ccccc1C(=O)NC(=S)Nc1sc2c(c1C(N)=O)CCN(C(=O)OC(C)(C)C)C2 [Compound 5c, Tert-butyl-3-carbamoyl-2–(3-(2-methylbenzoyl)thioureido)-4,7-dihydrothieno[2,3-c]pyridine-6(5H)-carboxylate]",6.21 ± 0.69
3,"Cc1cc(C)c(C(=O)NC(=S)Nc2sc3c(c2C(N)=O)CCN(C(=O)OC(C)(C)C)C3)c(C)c1 [Compound 5e, Tert-butyl-3-carbamoyl-2–(3-(2,4,6-trimethylbenzoyl)thioureido)-4,7-dihydrothieno[2,3-c]pyridine-6(5H)-carboxylate]",11.2 ± 1.01
4,"COc1ccc(C(=O)NC(=S)Nc2sc3c(c2C(N)=O)CCN(C(=O)OC(C)(C)C)C3)cc1 [Compound 5f, Tert-butyl-3-carbamoyl-2–(3-(4-methoxybenzoyl)thioureido)-4,7-dihydrothieno[2,3-c]pyridine-6(5H)-carboxylate]",16.4 ± 1.78
5,"CC(C)(C)OC(=O)N1CCc2c(sc(NC(=S)NC(=O)c3ccc(Br)cc3)c2C(N)=O)C1 [Compound 5g, Tert-butyl-2–(3-(4-bromobenzoyl)thioureido)-3-carbamoyl-4,7-dihydrothieno[2,3-c]pyridine-6(5H)-carboxylate]",9.35 ± 0.97
6,"CC(C)(C)OC(=O)N1CCc2c(sc(NC(=S)NC(=O)c3ccccc3Cl)c2C(N)=O)C1 [Compound 5k, Tert-butyl-3-carbamoyl-2–(3-(2-chlorobenzoyl)thioureido)-4,7-dihydrothieno[2,3-c]pyridine-6(5H)-carboxylate]",8.65 ± 0.93

# Next, values leading:
row,IC50 [µM],Structure (SMILES)
1,7.64 ± 0.72,"CC(C)(C)OC(=O)N1CCc2c(sc(NC(=S)NC(=O)c3ccccc3)c2C(N)=O)C1 [Compound 5a, Tert-butyl-2–(3-benzoylthioureido)-3-carbamoyl-4,7-dihydrothieno[2,3-c]pyridine-6(5H)-carboxylate]"
2,4.32 ± 0.51,"Cc1cccc(C(=O)NC(=S)Nc2sc3c(c2C(N)=O)CCN(C(=O)OC(C)(C)C)C3)c1 [Compound 5d, Tert-butyl-3-carbamoyl-2–(3-(3-methylbenzoyl)thioureido)-4,7-dihydrothieno[2,3-c]pyridine-6(5H)-carboxylate]"
3,5.33 ± 0.65,"CC(C)(C)OC(=O)N1CCc2c(sc(NC(=S)NC(=O)c3ccc(F)cc3)c2C(N)=O)C1 [Compound 5h, Tert-butyl-3-carbamoyl-2–(3-(4-fluorobenzoyl)thioureido)-4,7-dihydrothieno[2,3-c]pyridine-6(5H)-carboxylate]"
4,7.82 ± 0.71,"CC(C)(C)OC(=O)N1CCc2c(sc(NC(=S)NC(=O)c3ccccc3F)c2C(N)=O)C1 [Compound 5i, Tert-butyl-3-carbamoyl-2–(3-(2-fluorobenzoyl)thioureido)-4,7-dihydrothieno[2,3-c]pyridine-6(5H)-carboxylate]"
5,9.12 ± 0.95,"CC(C)(C)OC(=O)N1CCc2c(sc(NC(=S)NC(=O)c3ccc(Cl)cc3)c2C(N)=O)C1 [Compound 5j, Tert-butyl-3-carbamoyl-2–(3-(4-chlorobenzoyl)thioureido)-4,7-dihydrothieno[2,3-c]pyridine-6(5H)-carboxylate]"
6,5.15 ± 0.54,"CC(C)(C)OC(=O)N1CCc2c(sc(NC(=S)NC(=O)c3cccc(Cl)c3)c2C(N)=O)C1 [Compound 5l, Tert-butyl-3-carbamoyl-2–(3-(3-chlorobenzoyl)thioureido)-4,7-dihydrothieno[2,3-c]pyridine-6(5H)-carboxylate]"
7,2.02 ± 0.27,"CC(C)(C)OC(=O)N1CCc2c(sc(NC(=S)NC(=O)c3cccc(C(F)(F)F)c3)c2C(N)=O)C1 [Compound 5m, Tert-butyl-3-carbamoyl-2–(3-(3-(trifluoromethyl)benzoyl)thioureido)-4,7-dihydrothieno[2,3-c]pyridine-6(5H)-carboxylate]"
